Experimental data: paper PMC11792831, “Design and synthesis of doublecortin-like kinase 1 inhibitors and their bioactivity evaluation” (Journal of Enzyme Inhibition and Medicinal Chemistry, 2023)

Key:
[1] = system: HCT116; assay: In vitro cytotoxicity / anti-proliferation assay (CCK8); assay type: cell-based; conditions: Homo sapiens, HCT-116, colorectal cancer cell line HCT116, 72 h
Description: To determine whether DCLK1 was required for tumour cell proliferation, the cytotoxicity of compounds was evaluated in colorectal cancer cell line HCT116. HCT116 was treated with compounds for 72 h, and the cell viability was determined using CCK8 assay (Figure 4). The antiproliferative effects of most compounds on HCT116 were correlated with their DCLK1 inhibitory activities, except for compounds D1 and D2. The poor cytotoxicity of compounds D1 and D2 may be attributed to their poor cell membrane permeability due to the negatively charged carboxylates. […] Overall, targeting DCLK1 inhibited the proliferation of HCT116, indicating the importance of DCLK1 in tumour growth.
A 96-well plate (3599, Corning, USA) was inoculated with 100 μL of complete medium containing 10 000 cells, and the experimental, control, and blank groups were established. Three parallel wells were used per concentration. After 10 h, media from the experimental and control groups were replaced with a complete medium containing the indicated concentration of the compound. Cells were incubated for 72 h before 10 μL of CCK8 reagent (CA1210, Solarbio, China) was added to each well and incubated for 1 h. The absorbance at 450 nm was measured with a microplate reader (Tecan, Switzerland). The IC50 was determined using GraphPad Prism 8 and nonlinear regression curve fitting.

[2] = biological target: T1, DCLK1 (Homo sapiens, UniProt O15075); assay: In vitro DCLK1 kinase activity assay (Eurofins); assay type: biochemical; conditions: for Selectivity (IC50 of DCLK1/IC50 of LRRK2): ratio of IC50 values; for Selectivity (DCLK1 activity/LRRK2 activity): ratio of remaining activities at 1 uM; for IC50: read-out: IC50 of DCLK1; for activity at 1 µM: remaining kinase activity at 1 uM compound, 100% = no inhibition, 0% = complete inhibition, read-out: DCLK1 activity (%)
T1 construct: purchased Eurofins (Belgium), contract assay service
T1 sequence (O15075 1-740): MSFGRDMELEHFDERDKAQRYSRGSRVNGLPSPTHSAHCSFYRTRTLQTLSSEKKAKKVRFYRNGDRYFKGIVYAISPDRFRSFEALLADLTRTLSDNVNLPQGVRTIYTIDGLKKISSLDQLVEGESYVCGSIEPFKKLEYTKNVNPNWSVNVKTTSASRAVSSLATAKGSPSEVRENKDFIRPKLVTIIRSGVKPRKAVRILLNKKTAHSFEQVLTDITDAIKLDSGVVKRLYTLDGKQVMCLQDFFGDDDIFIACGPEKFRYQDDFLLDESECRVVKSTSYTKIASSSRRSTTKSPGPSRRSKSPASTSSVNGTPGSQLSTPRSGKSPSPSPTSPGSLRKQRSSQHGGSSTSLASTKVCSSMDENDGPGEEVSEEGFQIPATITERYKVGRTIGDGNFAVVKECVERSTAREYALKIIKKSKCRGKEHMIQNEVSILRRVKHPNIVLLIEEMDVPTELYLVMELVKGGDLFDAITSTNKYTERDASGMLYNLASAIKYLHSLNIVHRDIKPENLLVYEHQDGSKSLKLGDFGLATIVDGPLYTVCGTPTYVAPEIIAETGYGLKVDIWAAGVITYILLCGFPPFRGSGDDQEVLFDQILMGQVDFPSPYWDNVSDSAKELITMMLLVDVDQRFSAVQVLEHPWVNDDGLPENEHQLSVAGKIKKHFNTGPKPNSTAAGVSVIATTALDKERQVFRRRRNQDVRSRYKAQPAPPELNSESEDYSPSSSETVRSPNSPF
Source text: (§1) Eurofins (Belgium) conducted in vitro DCLK1 and LRRK2 kinase activity assays. Compounds were sent as dry powders to Eurofins.

[3] = biological target: T2, LRRK2 (Homo sapiens, UniProt Q5S007); assay: In vitro LRRK2 kinase activity assay (Eurofins); assay type: biochemical; conditions: for activity at 1 µM: remaining kinase activity at 1 uM compound, 100% = no inhibition, 0% = complete inhibition
T2 construct: purchased Eurofins (Belgium), contract assay service
T2 sequence (Q5S007 whole entry): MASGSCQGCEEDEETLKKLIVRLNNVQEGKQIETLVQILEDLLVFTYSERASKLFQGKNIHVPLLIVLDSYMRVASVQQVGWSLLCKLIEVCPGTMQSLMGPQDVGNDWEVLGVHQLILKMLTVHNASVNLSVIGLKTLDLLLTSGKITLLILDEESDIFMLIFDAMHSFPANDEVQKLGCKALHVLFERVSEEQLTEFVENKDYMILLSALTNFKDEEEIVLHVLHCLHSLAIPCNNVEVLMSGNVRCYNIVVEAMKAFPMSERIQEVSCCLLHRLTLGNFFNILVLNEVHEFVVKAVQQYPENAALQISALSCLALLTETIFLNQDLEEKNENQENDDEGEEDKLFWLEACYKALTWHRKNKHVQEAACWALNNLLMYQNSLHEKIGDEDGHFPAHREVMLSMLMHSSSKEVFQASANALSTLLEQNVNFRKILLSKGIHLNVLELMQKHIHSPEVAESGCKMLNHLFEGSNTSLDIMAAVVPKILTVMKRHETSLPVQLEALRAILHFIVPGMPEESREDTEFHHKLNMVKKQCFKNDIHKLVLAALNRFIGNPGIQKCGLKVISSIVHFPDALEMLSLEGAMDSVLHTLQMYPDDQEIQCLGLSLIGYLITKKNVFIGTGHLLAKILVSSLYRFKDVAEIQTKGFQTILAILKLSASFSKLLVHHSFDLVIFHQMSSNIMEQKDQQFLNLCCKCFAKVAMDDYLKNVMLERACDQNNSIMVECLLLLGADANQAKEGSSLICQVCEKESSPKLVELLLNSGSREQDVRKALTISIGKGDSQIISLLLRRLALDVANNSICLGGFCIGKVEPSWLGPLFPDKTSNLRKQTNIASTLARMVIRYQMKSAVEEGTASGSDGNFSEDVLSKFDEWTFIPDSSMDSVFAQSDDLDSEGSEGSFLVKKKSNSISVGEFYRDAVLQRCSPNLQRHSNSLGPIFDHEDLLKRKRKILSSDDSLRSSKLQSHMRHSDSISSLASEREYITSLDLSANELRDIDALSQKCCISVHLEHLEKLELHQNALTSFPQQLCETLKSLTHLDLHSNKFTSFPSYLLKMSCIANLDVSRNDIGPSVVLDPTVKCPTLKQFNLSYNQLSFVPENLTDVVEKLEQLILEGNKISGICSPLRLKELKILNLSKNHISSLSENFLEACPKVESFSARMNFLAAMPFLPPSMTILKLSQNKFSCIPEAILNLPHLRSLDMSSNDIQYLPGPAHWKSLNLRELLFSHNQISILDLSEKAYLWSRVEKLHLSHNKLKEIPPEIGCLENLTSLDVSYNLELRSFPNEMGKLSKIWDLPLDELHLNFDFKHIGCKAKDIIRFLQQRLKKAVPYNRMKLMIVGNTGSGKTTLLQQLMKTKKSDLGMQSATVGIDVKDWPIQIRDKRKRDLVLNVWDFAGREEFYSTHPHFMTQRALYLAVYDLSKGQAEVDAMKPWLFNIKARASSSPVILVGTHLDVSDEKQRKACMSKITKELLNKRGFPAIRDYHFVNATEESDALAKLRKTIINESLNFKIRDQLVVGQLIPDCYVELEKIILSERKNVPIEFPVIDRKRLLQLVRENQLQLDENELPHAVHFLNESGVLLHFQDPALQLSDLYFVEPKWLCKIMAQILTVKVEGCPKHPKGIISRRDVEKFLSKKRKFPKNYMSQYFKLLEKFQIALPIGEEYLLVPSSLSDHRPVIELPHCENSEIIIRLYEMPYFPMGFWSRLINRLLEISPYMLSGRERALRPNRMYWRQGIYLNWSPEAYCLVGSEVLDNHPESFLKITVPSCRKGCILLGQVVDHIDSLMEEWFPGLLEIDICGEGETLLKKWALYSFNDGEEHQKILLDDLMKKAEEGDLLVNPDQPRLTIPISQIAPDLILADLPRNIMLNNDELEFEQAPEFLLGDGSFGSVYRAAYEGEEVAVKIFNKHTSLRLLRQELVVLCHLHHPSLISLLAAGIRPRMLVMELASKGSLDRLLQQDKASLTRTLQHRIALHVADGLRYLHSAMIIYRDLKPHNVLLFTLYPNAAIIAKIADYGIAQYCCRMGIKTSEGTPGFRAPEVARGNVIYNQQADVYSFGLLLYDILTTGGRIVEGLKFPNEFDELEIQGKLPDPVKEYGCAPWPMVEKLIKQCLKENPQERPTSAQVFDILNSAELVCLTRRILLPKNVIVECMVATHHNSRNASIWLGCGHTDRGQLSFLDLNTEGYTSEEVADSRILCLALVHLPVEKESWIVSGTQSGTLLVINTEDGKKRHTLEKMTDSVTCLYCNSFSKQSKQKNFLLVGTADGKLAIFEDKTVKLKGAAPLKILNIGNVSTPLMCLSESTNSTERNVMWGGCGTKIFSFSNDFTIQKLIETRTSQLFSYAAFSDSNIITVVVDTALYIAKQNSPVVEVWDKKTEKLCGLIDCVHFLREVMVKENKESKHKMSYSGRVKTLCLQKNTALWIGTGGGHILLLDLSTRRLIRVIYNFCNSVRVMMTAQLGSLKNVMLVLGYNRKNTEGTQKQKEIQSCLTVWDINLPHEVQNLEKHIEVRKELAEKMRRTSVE
Description: All compounds were tested for their kinase inhibitory activity at the concentration of 1 μM. […] Compounds with high activity or good selectivity were selected for further IC50 determination (Table 2).
as §1

COc1cc(NC(=O)CCC(=O)O)ccc1Nc1ncc2c(n1)N(C)c1ccccc1C(=O)N2C [Compound D2, 4-((4-((5,11-Dimethyl-6-oxo-6,11-dihydro-5H-benzo[e]pyrimido[5,4-b][1,4]diazepin-2-yl)amino)-3-methoxyphenyl)amino)-4-oxobutanoic acid]
melting point: 237 to 238 °C | IC50 [1]: > 100 µM | Selectivity (IC50 of DCLK1/IC50 of LRRK2) [2]: <0.07 | Selectivity (DCLK1 activity/LRRK2 activity) [2]: 0.20 | IC50 [2]: 0.07 µM | activity at 1 µM [2]: 10% | IC50 [3]: > 1 µM | activity at 1 µM [3]: 49%

COc1cc(N2CCC(C)(O)CC2)ccc1Nc1ncc2c(n1)N(C)c1ccccc1C(=O)N2C [Compound D15, 2-((4-(4-Hydroxy-4-methylpiperidin-1-yl)-2-methoxyphenyl)amino)-5,11-dimethyl-5,11-dihydro-6H-benzo[e]pyrimido[5,4-b][1,4]diazepin-6-one]
melting point: 162 to 163 °C | IC50 [1]: 9.88 µM | Selectivity (IC50 of DCLK1/IC50 of LRRK2) [2]: 0.58 | Selectivity (DCLK1 activity/LRRK2 activity) [2]: 0.44 | IC50 [2]: 0.052 µM | activity at 1 µM [2]: 4% | IC50 [3]: 0.089 µM | activity at 1 µM [3]: 9%

COc1cc(N2CCC(OC)CC2)ccc1Nc1ncc2c(n1)N(C)c1ccccc1C(=O)N2C [Compound D12, 2-((2-Methoxy-4-(4-methoxypiperidin-1-yl)phenyl)amino)-5,11-dimethyl-5,11-dihydro-6H-benzo[e]pyrimido[5,4-b][1,4]diazepin-6-one]
melting point: 179 to 180 °C | IC50 [1]: 10.1 µM | Selectivity (IC50 of DCLK1/IC50 of LRRK2) [2]: 0.47 | Selectivity (DCLK1 activity/LRRK2 activity) [2]: 0.50 | IC50 [2]: 0.047 µM | activity at 1 µM [2]: 5% | IC50 [3]: 0.099 µM | activity at 1 µM [3]: 10%

CCOc1cc(N2CCC(O)CC2)ccc1Nc1ncc2c(n1)N(C)c1ccccc1C(=O)N2CC [Compound B3, 2-((2-Ethoxy-4-(4-hydroxypiperidin-1-yl)phenyl)amino)-5-ethyl-11-methyl-5,11-dihydro-6H-benzo[e]pyrimido[5,4-b][1,4]diazepin-6-one]
melting point: 162 to 163 °C | IC50 [1]: 33.2 µM | Selectivity (IC50 of DCLK1/IC50 of LRRK2) [2]: <0.32 | Selectivity (DCLK1 activity/LRRK2 activity) [2]: 0.40 | IC50 [2]: 0.324 µM | activity at 1 µM [2]: 28% | IC50 [3]: > 1 µM | activity at 1 µM [3]: 70%

COc1cc(NC(=O)CCCCCSC(C)=O)ccc1Nc1ncc2c(n1)N(C)c1ccccc1C(=O)N2C [Compound D8, S-(6-((4-((5,11-dimethyl-6-oxo-6,11-dihydro-5H-benzo[e]pyrimido[5,4-b][1,4]diazepin-2-yl)amino)-3-methoxyphenyl)amino)-6-oxohexyl) ethanethioate]
melting point: 159 to 160 °C | IC50 [1]: 11.5 µM | Selectivity (IC50 of DCLK1/IC50 of LRRK2) [2]: 0.18 | Selectivity (DCLK1 activity/LRRK2 activity) [2]: 0.36 | IC50 [2]: 0.04 µM | activity at 1 µM [2]: 8% | IC50 [3]: 0.228 µM | activity at 1 µM [3]: 22%

CCOc1cc(N2CC[S+]([O-])CC2)ccc1Nc1ncc2c(n1)N(C)c1ccccc1C(=O)N2C [Compound D5, 2-((2-ethoxy-4-(1-Oxidothiomorpholino)phenyl)amino)-5,11-dimethyl-5,11-dihydro-6H-benzo[e]pyrimido[5,4-b][1,4]diazepin-6-one]
melting point: 163 to 164 °C | IC50 [1]: 10.7 µM | Selectivity (IC50 of DCLK1/IC50 of LRRK2) [2]: 0.46 | Selectivity (DCLK1 activity/LRRK2 activity) [2]: 0.57 | IC50 [2]: 0.146 µM | activity at 1 µM [2]: 12% | IC50 [3]: 0.32 µM | activity at 1 µM [3]: 21%

CCOc1cc(N2CCN(C[C@@]3(O)OC[C@@H](O)[C@@H](O)[C@@H]3O)CC2)ccc1Nc1ncc2c(n1)N(C)c1ccccc1C(=O)N2C [Compound D7, 2-((2-Ethoxy-4-(4-(((2R,3S,4R,5R)-2,3,4,5-tetrahydroxytetrahydro-2H-pyran-2-yl)methyl)piperazin-1-yl)phenyl)amino)-5,11-dimethyl-5,11-dihydro-6H-benzo[e]pyrimido[5,4-b][1,4]diazepin-6-one]
melting point: 126 to 127 °C | IC50 [1]: 10.5 µM | Selectivity (IC50 of DCLK1/IC50 of LRRK2) [2]: 0.30 | Selectivity (DCLK1 activity/LRRK2 activity) [2]: 0.29 | IC50 [2]: 0.046 µM | activity at 1 µM [2]: 6% | IC50 [3]: 0.154 µM | activity at 1 µM [3]: 21%

CCOc1cc(N2CCS(=O)(=O)CC2)ccc1Nc1ncc2c(n1)N(C)c1ccccc1C(=O)N2C [Compound D6, 2-((4-(1,1-Dioxidothiomorpholino)-2-ethoxyphenyl)amino)-5,11-dimethyl-5,11-dihydro-6H-benzo[e]pyrimido[5,4-b][1,4]diazepin-6-one]
melting point: 157 to 158 °C | IC50 [1]: 12 µM | Selectivity (IC50 of DCLK1/IC50 of LRRK2) [2]: 0.38 | Selectivity (DCLK1 activity/LRRK2 activity) [2]: 0.47 | IC50 [2]: 0.074 µM | activity at 1 µM [2]: 9% | IC50 [3]: 0.195 µM | activity at 1 µM [3]: 19%

CCOc1cc(N2CCC(O)CC2)ccc1Nc1ncc2c(n1)N(C)c1ccc(F)cc1C(=O)N2C [Compound A6, 2-((2-Ethoxy-4-(4-hydroxypiperidin-1-yl)phenyl)amino)-8-fluoro-5,11-dimethyl-5,11-dihydro-6H-benzo[e]pyrimido[5,4-b][1,4]diazepin-6-one]
melting point: 166 to 167 °C | IC50 [1]: 24.7 µM | Selectivity (IC50 of DCLK1/IC50 of LRRK2) [2]: <0.37 | Selectivity (DCLK1 activity/LRRK2 activity) [2]: 0.37 | IC50 [2]: 0.365 µM | activity at 1 µM [2]: 19% | IC50 [3]: > 1 µM | activity at 1 µM [3]: 51%

CCOc1cc(N2CCC(C(=O)O)CC2)ccc1Nc1ncc2c(n1)N(C)c1ccccc1C(=O)N2C [Compound D3, 1-(4-((5,11-Dimethyl-6-oxo-6,11-dihydro-5H-benzo[e]pyrimido[5,4-b][1,4]diazepin-2-yl)amino)-3-ethoxyphenyl)piperidine-4-carboxylic acid]
melting point: 159 to 160 °C | IC50 [1]: 21.5 µM | Selectivity (IC50 of DCLK1/IC50 of LRRK2) [2]: <0.34 | Selectivity (DCLK1 activity/LRRK2 activity) [2]: 0.59 | IC50 [2]: 0.34 µM | activity at 1 µM [2]: 20% | IC50 [3]: > 1 µM | activity at 1 µM [3]: 34%

COc1cc(N2CCCCC2)ccc1Nc1ncc2c(n1)N(C)c1ccccc1C(=O)N2C [Compound D11, 2-((2-Methoxy-4-(piperidin-1-yl)phenyl)amino)-5,11-dimethyl-5,11-dihydro-6H-benzo[e]pyrimido[5,4-b][1,4]diazepin-6-one]
melting point: 166 to 167 °C | IC50 [1]: 11.5 µM | Selectivity (IC50 of DCLK1/IC50 of LRRK2) [2]: 0.38 | Selectivity (DCLK1 activity/LRRK2 activity) [2]: 0.61 | IC50 [2]: 0.1 µM | activity at 1 µM [2]: 11% | IC50 [3]: 0.266 µM | activity at 1 µM [3]: 18%

COc1cc(N2CCC(F)(F)CC2)ccc1Nc1ncc2c(n1)N(C)c1ccccc1C(=O)N2C [Compound D14, 2-((4-(4,4-Difluoropiperidin-1-yl)-2-methoxyphenyl)amino)-5,11-dimethyl-5,11-dihydro-6H-benzo[e]pyrimido[5,4-b][1,4]diazepin-6-one]
melting point: 171 to 172 °C | IC50 [1]: 15.5 µM | Selectivity (IC50 of DCLK1/IC50 of LRRK2) [2]: 0.40 | Selectivity (DCLK1 activity/LRRK2 activity) [2]: 0.44 | IC50 [2]: 0.053 µM | activity at 1 µM [2]: 7% | IC50 [3]: 0.132 µM | activity at 1 µM [3]: 16%

CCOc1cc(N2CCC(O)CC2)ccc1Nc1ncc2c(n1)N(C)c1cccc(F)c1C(=O)N2C [Compound A9, 2-((2-Ethoxy-4-(4-hydroxypiperidin-1-yl)phenyl)amino)-7-fluoro-5,11-dimethyl-5,11-dihydro-6H-benzo[e]pyrimido[5,4-b][1,4]diazepin-6-one]
melting point: 174 to 175 °C | IC50 [1]: 20.5 µM | Selectivity (IC50 of DCLK1/IC50 of LRRK2) [2]: <0.34 | Selectivity (DCLK1 activity/LRRK2 activity) [2]: 0.34 | IC50 [2]: 0.338 µM | activity at 1 µM [2]: 17% | IC50 [3]: > 1 µM | activity at 1 µM [3]: 50%
